Where “and” joins values, the source holds several entries; their conditions need not be identical. Equal values may be shown once.
Columns and labels:
[1] = test system: human embryonic stem cell line H9; assay: Cytokine array (RayBiotech) of cell lysates and conditioned media, Activin A +/- Wnt3a (Table VII); format: cell-based; design: Angiogenin / BDNF / BMP-4 / BMP-6 / CK beta 8-1 / Eotaxin-3 / Flt-3 Ligand / Fractalkine / GCP-2 / GDNF / GM-CSF / I-309 / IFN-gamma / IGFBP-1 / IGFBP-2 / IGFBP-4 / IL-10 / IL-13 / IL-15 / IL-1alpha / IL-1beta / IL-1ra / IL-3 / IL-5 / Leptin / MCP-1 / MIP-1-delta / NT-3 / RANTES / SCF / TGF-beta 1 / TNF-beta / Acrp30 / AgRP / AxI / bFGF: unit not given here; conditions: H9 day 5, samples 1,2
Procedure: At passage 54, cells were differentiated in the presence of 100 ng/mlActivinA+/−10 ng/mlWnt3a for 2 days in 0.5% FBS DMEM/F12. […]
Cell lysates were prepared from cells of each treatment group, with a mammalian cell lysis kit (Sigma-Aldrich,MO). Conditioned media from each treatment group was collected and concentrated. Cytokine array analysis was completed using Cytokine Array panels provided by RayBiotech, GA (http://www.raybiotech.com/). […] For each panel, positive and negative controls are also included.

[2] = test system: human embryonic stem cell line H9; assay: Cells from […] differentiated on MEFs: role of Wnt-3a (real-time PCR, FACS); format: cell-based
Procedure: Cells from the human embryonic stem cell line H9 cultured on […]™ for at least five passages were seeded onto MEF feeders in ES media.
At day 3 and 5, the cultures were analyzed by real time PCR for SOX-17, SOX-7, Alpha-fetal protein (AFP), CXCR4, Brychyury (Bry), gooscecoid (GSC), HNF-3 beta, GATA4, hTERT and Oct4. AFP and SOX-7 are regarded as visceral endoderm markers while GATA4, HNF-3beta and SOX-17 represent definite endoderm markers and GSC, Bry, and CXCR4 represent markers of primitive streak. hTERT and Oct-4 are markers for self renewal and pluripotency respectively. FACS analysis was also performed at day 3 and 5.

## Activin A: activin A (a member of the TGFβ superfamily), R&D Systems; 'w/o wnt' in Table VII = 100 ng/ml Activin A without Wnt3a
[1]; Cell conditioned media
  Acrp30: 1,797.52 and 1,319.88
  AgRP: 378.17 and 195.90
  Amphiregulin: 250.52 and 151.01
  Angiogenin: 13,726.35 and 11,749.55
  Angiopoietin-2: 655.82 and 632.60
  AxI: 401.31 and 324.05
  BDNF: 689.22 and 563.39
  BMP-4: 583.40 and 541.83
  BMP-6: 354.91 and 355.28
  CK beta 8-1: 17.79 and 25.31
  CNTF: 282.81 and 211.86
  EGF: 1,681.85 and 1,406.12
  Eotaxin: 207.89 and 199.67
  Eotaxin-2: 890.56 and 744.31
  Eotaxin-3: 975.77 and 665.56
  FGF-7: 449.49 and 352.47
  Flt-3 Ligand: 315.58 and 277.47
  Fractalkine: 120.80 and 145.30
  GCP-2: 203.21 and 166.86
  GDNF: 176.99 and 194.98
  GM-CSF: 777.25 and 722.75
  IFN-gamma: 283.74 and 559.64
  IGF-I: 88.96 and 148.11
  IGFBP-1: 33.71 and 24.37
  IGFBP-2: 27,656.85 and 28,473.95
  IGFBP-4: 10,091.09 and 6,029.45
  IL-1alpha: 10,155.70 and 5,842.90
  IL-1beta: 117.99 and 75.93
  IL-1ra: 142.34 and 93.74
  IL-2: 188.22 and 363.72
  IL-3: 4,598.86 and 5,260.77
  IL-4: 357.72 and 239.04
  IL-6: 7,377.28 and 9,527.88
  IL-7: 456.98 and 430.27
  IL-10: 722.93 and 564.32
  IL-16: 259.39 and 214.67
  LIGHT: 619.92 and 453.71
  Leptin: 2,999.42 and 2,016.38
  M-CSF: 529.09 and 269.04
  MCP-1: 572.17 and 500.58
  MCP-4: 123.61 and 61.87
  MIG: 272.50 and 486.52
  NAP-2: 97.39 and 110.61
  NT-3: 97.39 and 171.55
  PDGF-BB: 4,729.96 and 8,521.09
  RANTES: 393.31 and 347.78
  SCF: 691.09 and 487.46
  TGF-beta 1: 752.90 and 740.56
  TGF-beta 3: 111.44 and 115.30
  TNF-beta: 675.17 and 671.19
  bFGF: 7,948.03 and 4,993.83
[1]; Cell lysate
  Amphiregulin: 17.50 and 15.44
  AxI: 637.50 and 795.83
  BDNF: 167.50 and 167.82
  BMP-4: 247.00 and 273.70
  CK beta 8-1: 1.00 and 1.13
  Eotaxin-2: 262.00 and 336.77
  Eotaxin-3: 184.50 and 284.96
  FGF-6: 629.00 and 379.57
  GM-CSF: 433.00 and 636.37
  I-309: 152.50 and 246.10
  IFN-gamma: 349.00 and 441.52
  IGFBP-2: 3,785.50 and 5,554.45
  IGFBP-4: 5,553.00 and 6,043.27
  IL-1alpha: 1,236.00 and 1,216.99
  IL-1beta: 1.00 and 1.13
  IL-1ra: 33.00 and 25.91
  IL-5: 400.50 and 555.84
  IL-6: 828.50 and 516.98
  IL-7: 190.00 and 313.12
  IL-13: 428.50 and 555.84
  IL-15: 599.50 and 808.13
  Leptin: 900.50 and 617.79
  MCP-1: 242.50 and 282.71
  MIG: 291.00 and 226.39
  MIP-1-delta: 1.50 and 1.13
  NT-3: 1.00 and 1.13
  SCF: 74.50 and 148.67
  TGF-beta 1: 362.00 and 230.33
  TNF-alpha: 431.00 and 579.49
  TNF-beta: 241.00 and 342.40
  bFGF: 59,820.50 and 54,057.29
[2]; day 3, high concentration of Activin A
  CXCR4 positive cells (FACS): 32-42%
[2]; day 5, high concentration of activin A
  cells expressing CXCR4 (FACS): 28-32%
[2]; lower concentration of Activin A, regardless of Wnt3a
  AFP expression: very high

— US9096832B2, “Differentiation of human embryonic stem cells” (LifeScan, Inc., priority 2007, dated 2015)
